Results reported in US20070128217A1 (priority 2003, published 2007).

Key:
[1] = tested on: control sera (pooled serum of ten healthy LUMC hospital workers; commercial negative donor pooled serum from the Dutch bloodbank); type: binding, human; parameters: Binding of Control serum LUMC to linear peptides / Binding of Control serum Blood-bank to linear peptides / Binding of Control serum LUMC to looped peptides / Binding of Control Serum Blood-Bank to Looped peptides / Binding of Control serum LUMC to linear peptides of the protein M of SARS-CoV Urbani / Binding of Control serum Blood-bank to linear peptides of the protein M of SARS-CoV Urbani / Binding of Control serum LUMC to looped peptides of the protein M of SARS-CoV Urbani / Binding of Control Serum Blood-Bank to Looped peptides of the protein M of SARS-CoV Urbani: unit not given here
[2] = tested on: antibodies in sera from SARS patients (sera 1a, 1b, 2, 6, 37, 62, London, SARS-yellow, SARS-green); type: binding, human; parameters: Binding of serum 6 to linear peptides of protein X1 of SARS-CoV Urbani / Binding of serum 37 to linear peptides of protein X1 of SARS-CoV Urbani / Binding of serum 6 to looped/cyclic peptide (PEPSCAN-ELISA) / Binding of serum 37 to looped/cyclic peptide (PEPSCAN-ELISA) / Binding of serum 37 to looped/cyclic peptides of protein X1 of SARS-CoV Urbani / Binding of serum 6 to linear peptides of protein X2 / Binding of serum 37 to linear peptides of protein X2 / Binding of serum 37 to looped/cyclic peptides of protein X2 of SARS-CoV Urbani / Binding of serum 6 to linear peptides of protein M of SARS-CoV Urbani / Binding of serum 37 to linear peptides of protein M of SARS-CoV Urbani / Binding of serum 6 to looped/cyclic peptides of protein M of SARS-CoV Urbani / Binding of serum 37 to looped/cyclic peptides of protein M of SARS-CoV Urbani / Binding of serum 6 to linear peptides of protein X3 of SARS-CoV Urbani / Binding of serum 37 to linear peptides of protein X3 of SARS-CoV Urbani / Binding of serum 37 to looped/cyclic peptides of protein X3 of SARS-CoV Urbani / Binding of serum 6 to linear peptides of protein X4 of SARS-CoV Urbani / Binding of serum 37 to linear peptides of protein X4 of SARS-CoV Urbani / Binding of serum 37 to looped/cyclic peptides of protein X4 of SARS-CoV Urbani / Binding of serum 6 to linear peptides of protein X5 of SARS-CoV Urbani / Binding of serum 37 to linear peptides of protein X5 of SARS-CoV Urbani / Binding of serum 37 to looped/cyclic peptides of protein X5 of SARS-CoV Urbani / Binding of serum 6 to linear peptides of protein N of SARS-CoV Urbani / Binding of serum 37 to linear peptides of protein N of SARS-CoV Urbani / Binding of serum 6 to linear peptide (PEPSCAN-ELISA) / Binding of serum 1a to looped/cyclic peptides of protein N of SARS-CoV Urbani / Binding of serum 1b to looped/cyclic peptides of protein N of SARS-CoV Urbani / Binding of serum 2 to looped/cyclic peptides of protein N of SARS-CoV Urbani / Binding of serum 6 to looped/cyclic peptides of protein N of SARS-CoV Urbani / Binding of serum 37 to looped/cyclic peptides of protein N of SARS-CoV Urbani / Binding of serum 62 to looped/cyclic peptides of protein N of SARS-CoV Urbani / Binding of serum London to looped/cyclic peptides of protein N of SARS-CoV Urbani / Binding of serum SARS-green to looped/cyclic peptides of protein N of SARS-CoV Urbani: unit not given here
[3] = tested on: rabbit serum obtained by immunizing a rabbit with the SARS-CoV strain Frankfurt 1; type: binding; parameters: Binding of a rabbit serum to linear peptides / Binding of a rabbit serum to looped peptides / Rabbit serum linear peptides / Rabbit serum looped peptides / Binding of a rabbit serum to linear peptides of protein N of SARS-CoV Urbani (Rabbit serum linear peptides) / Binding of a rabbit serum to looped/cyclic peptides of protein N of SARS-CoV Urbani (Rabbit serum looped peptides): unit not given here

NVQIHTIDGSSGVAN
0.7: Binding of serum 1a to linear peptides of protein X1 of SARS-CoV Urbani [2] | Binding of serum 37 to linear peptides of protein X1 of SARS-CoV Urbani [2]
0.3: Binding of serum 37 to looped/cyclic peptides of protein X1 of SARS-CoV Urbani [2] | Binding of serum 62 to looped/cyclic peptides of protein X1 of SARS-CoV Urbani [2] | Binding of serum London to linear peptides of protein X1 of SARS-CoV Urbani [2] | Binding of serum SARS-green to linear peptides of protein X1 of SARS-CoV Urbani [2] | Binding of a rabbit serum to looped peptides [3]
0.5: Binding of Control serum Blood-bank to linear peptides [1] | Binding of Control serum LUMC to linear peptides [1] | Binding of serum 1b to linear peptides of protein X1 of SARS-CoV Urbani [2] | Binding of serum 2 to linear peptides of protein X1 of SARS-CoV Urbani [2]
0.2: Binding of serum 1a to looped/cyclic peptides of protein X1 of SARS-CoV Urbani [2] | Binding of serum 1b to looped/cyclic peptides of protein X1 of SARS-CoV Urbani [2] | Binding of serum London to looped/cyclic peptides of protein X1 of SARS-CoV Urbani [2] | Binding of serum SARS-green to looped/cyclic peptides of protein X1 of SARS-CoV Urbani [2]
0.4: Binding of Control Serum Blood-Bank to Looped peptides [1] | Binding of Control serum LUMC to looped peptides [1] | Binding of serum 6 to linear peptides of protein X1 of SARS-CoV Urbani [2] | Binding of serum SARS-yellow to linear peptides of protein X1 of SARS-CoV Urbani [2]
0.1: Binding of serum 2 to looped/cyclic peptides of protein X1 of SARS-CoV Urbani [2] | Binding of serum 6 to looped/cyclic peptides of protein X1 of SARS-CoV Urbani [2] | Binding of serum SARS-yellow to looped/cyclic peptides of protein X1 of SARS-CoV Urbani [2] | Binding of a rabbit serum to linear peptides [3]
0.6: Binding of serum 62 to linear peptides of protein X1 of SARS-CoV Urbani [2]

MFHLVDFQVTIAEIL
0.6: Binding of serum 1b to looped/cyclic peptides of protein X3 of SARS-CoV Urbani [2] | Binding of serum 6 to looped/cyclic peptides of protein X3 of SARS-CoV Urbani [2] | Binding of serum SARS-green to looped/cyclic peptides of protein X3 of SARS-CoV Urbani [2] | Binding of serum SARS-yellow to linear peptides of protein X3 of SARS-CoV Urbani [2]
0.9: Binding of Control serum Blood-bank to linear peptides of the protein X3 of SARS-CoV Urbani [1] | Binding of Control serum LUMC to linear peptides of the protein X3 of SARS-CoV Urbani [1]
0.3: Binding of serum London to looped/cyclic peptides of protein X3 of SARS-CoV Urbani [2] | Binding of serum SARS-green to linear peptides of protein X3 of SARS-CoV Urbani [2] | Rabbit serum linear peptides [3]
0.4: Rabbit serum looped peptides [3]
1.0: Binding of Control serum LUMC to looped peptides of the protein X3 of SARS-CoV Urbani [1] | Binding of serum 37 to looped/cyclic peptides of protein X3 of SARS-CoV Urbani [2]
0.7: Binding of serum 1b to linear peptides of protein X3 of SARS-CoV Urbani [2] | Binding of serum 2 to linear peptides of protein X3 of SARS-CoV Urbani [2] | Binding of serum 37 to linear peptides of protein X3 of SARS-CoV Urbani [2] | Binding of serum London to linear peptides of protein X3 of SARS-CoV Urbani [2]
0.5: Binding of serum 6 to linear peptides of protein X3 of SARS-CoV Urbani [2]
0.8: Binding of Control Serum Blood-Bank to Looped peptides of the protein X3 of SARS-CoV Urbani [1] | Binding of serum 1a to linear peptides of protein X3 of SARS-CoV Urbani [2] | Binding of serum 1a to looped/cyclic peptides of protein X3 of SARS-CoV Urbani [2] | Binding of serum 2 to looped/cyclic peptides of protein X3 of SARS-CoV Urbani [2] | Binding of serum 62 to linear peptides of protein X3 of SARS-CoV Urbani [2] | Binding of serum 62 to looped/cyclic peptides of protein X3 of SARS-CoV Urbani [2] | Binding of serum SARS-yellow to looped/cyclic peptides of protein X3 of SARS-CoV Urbani [2]

GGALIARCWYLHEGH
0.7: Binding of serum 1a to looped/cyclic peptides of protein X5 of SARS-CoV Urbani [2] | Binding of serum 1b to linear peptides of protein X5 of SARS-CoV Urbani [2] | Binding of serum 37 to linear peptides of protein X5 of SARS-CoV Urbani [2] | Binding of serum 37 to looped/cyclic peptides of protein X5 of SARS-CoV Urbani [2] | Binding of serum 62 to looped/cyclic peptides of protein X5 of SARS-CoV Urbani [2] | Binding of serum London to linear peptides of protein X5 of SARS-CoV Urbani [2] | Binding of serum SARS-green to linear peptides of protein X5 of SARS-CoV Urbani [2] | Binding of serum SARS-green to looped/cyclic peptides of protein X5 of SARS-CoV Urbani [2]
0.6: Binding of Control Serum Blood-Bank to Looped peptides [1] | Binding of Control serum LUMC to looped peptides [1] | Binding of serum 1b to looped/cyclic peptides of protein X5 of SARS-CoV Urbani [2] | Binding of serum 2 to linear peptides of protein X5 of SARS-CoV Urbani [2] | Binding of serum 2 to looped/cyclic peptides of protein X5 of SARS-CoV Urbani [2]
0.4: Binding of Control serum LUMC to linear peptides [1] | Binding of serum 6 to looped/cyclic peptides of protein X5 of SARS-CoV Urbani [2]
0.5: Binding of Control serum Blood-bank to linear peptides [1] | Rabbit serum linear peptides [3] | Rabbit serum looped peptides [3]
0.3: Binding of serum London to looped/cyclic peptides of protein X5 of SARS-CoV Urbani [2] | Binding of serum SARS-yellow to linear peptides of protein X5 of SARS-CoV Urbani [2] | Binding of serum SARS-yellow to looped/cyclic peptides of protein X5 of SARS-CoV Urbani [2]
0.8: Binding of serum 1a to linear peptides of protein X5 of SARS-CoV Urbani [2] | Binding of serum 6 to linear peptides of protein X5 of SARS-CoV Urbani [2] | Binding of serum 62 to linear peptides of protein X5 of SARS-CoV Urbani [2]

NRNRFLYIIKLVFLW
0.5: Rabbit serum linear peptides [3]
0.1: Binding of serum SARS-yellow to linear peptides of protein M of SARS-CoV Urbani [2]
0.8: Binding of Control Serum Blood-Bank to Looped peptides of the protein M of SARS-CoV Urbani [1]
0.3: Binding of serum 6 to linear peptides of protein M of SARS-CoV Urbani [2] | Binding of serum London to linear peptides of protein M of SARS-CoV Urbani [2] | Binding of serum SARS-green to linear peptides of protein M of SARS-CoV Urbani [2]
0.6: Binding of serum 2 to linear peptides of protein M of SARS-CoV Urbani [2]
0.4: Binding of Control serum LUMC to linear peptides of the protein M of SARS-CoV Urbani [1] | Binding of serum 1b to linear peptides of protein M of SARS-CoV Urbani [2] | Rabbit serum looped peptides [3]
0.7: Binding of Control serum Blood-bank to linear peptides of the protein M of SARS-CoV Urbani [1] | Binding of Control serum LUMC to looped peptides of the protein M of SARS-CoV Urbani [1] | Binding of serum 1a to linear peptides of protein M of SARS-CoV Urbani [2] | Binding of serum 37 to linear peptides of protein M of SARS-CoV Urbani [2] | Binding of serum 62 to linear peptides of protein M of SARS-CoV Urbani [2]
recognized in looped/cyclic form: Recognition of the peptide by sera of SARS-CoV infected individuals, and form (linear, looped/cyclic) in which it is recognized [2]

ESTQITTDTGIENAT
0.5: Binding of Control serum LUMC to linear peptides [1] | Binding of serum 37 to linear peptides of protein X1 of SARS-CoV Urbani [2] | Binding of serum 62 to linear peptides of protein X1 of SARS-CoV Urbani [2] | Binding of a rabbit serum to looped peptides [3]
0.1: Binding of serum 2 to looped/cyclic peptides of protein X1 of SARS-CoV Urbani [2] | Binding of serum SARS-green to looped/cyclic peptides of protein X1 of SARS-CoV Urbani [2] | Binding of serum SARS-yellow to linear peptides of protein X1 of SARS-CoV Urbani [2] | Binding of a rabbit serum to linear peptides [3]
0.2: Binding of serum 1b to looped/cyclic peptides of protein X1 of SARS-CoV Urbani [2] | Binding of serum 6 to looped/cyclic peptides of protein X1 of SARS-CoV Urbani [2] | Binding of serum London to linear peptides of protein X1 of SARS-CoV Urbani [2] | Binding of serum London to looped/cyclic peptides of protein X1 of SARS-CoV Urbani [2] | Binding of serum SARS-green to linear peptides of protein X1 of SARS-CoV Urbani [2]
0.4: Binding of Control Serum Blood-Bank to Looped peptides [1] | Binding of Control serum Blood-bank to linear peptides [1] | Binding of Control serum LUMC to looped peptides [1] | Binding of serum 1a to looped/cyclic peptides of protein X1 of SARS-CoV Urbani [2] | Binding of serum 1b to linear peptides of protein X1 of SARS-CoV Urbani [2] | Binding of serum 6 to linear peptides of protein X1 of SARS-CoV Urbani [2]
0.3: Binding of serum 2 to linear peptides of protein X1 of SARS-CoV Urbani [2] | Binding of serum 37 to looped/cyclic peptides of protein X1 of SARS-CoV Urbani [2] | Binding of serum 62 to looped/cyclic peptides of protein X1 of SARS-CoV Urbani [2] | Binding of serum SARS-yellow to looped/cyclic peptides of protein X1 of SARS-CoV Urbani [2]
0.6: Binding of serum 1a to linear peptides of protein X1 of SARS-CoV Urbani [2]
